Data on 12 molecules can be found in ChEMBL document CHEMBL1201862, “PubChem BioAssay data set” (2004).

Among the test systems are HCT-116; A549; ACHN; EKVX; UACC-257; M14; SK-OV-3; SR; HCC 2998; LOX IMVI; CCRF-CEM; UO-31; HOP-92; SK-MEL-2; NCI-H522; RXF 393; SK-MEL-5; RPMI-8226; HOP-62; HOP-18.
Holding throughout (test): DTP human tumour cell line panel, 48 h

Molecules are shown by their SMILES.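 The compound was tested at five concentrations on cells cultured in 96-well plates, with a 48-hour exposure period. GI50 = concentration required for 50% inhibition of growth.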 Activity calls are given as the source filed them. Rule as the data show it: active = GI50 up to about 1.1 µM and inactive = higher. Where a SMILES comes first, the peptide text is derived from it. The star is where a group is joined. Boc = CC(C)(C)OC(=O)*

For `CCc1c(O)c2c(c(O)c1C(C)=O)C(=O)c1c(cc(O)c(C(=O)O)c1C(=O)O)C2=O`, the GI50 with HCT-116, in the test with A549, with ACHN, in the test on EKVX, in the test on UACC-257 and in the test with M14 was > 100 µM (inactive) each time. The GI50 with SK-OV-3, with SR, in the test on HCC 2998, with LOX IMVI, with CCRF-CEM and in the test with UO-31 was > 100 µM (inactive) each time. The GI50 with HOP-92, with SK-MEL-2, in the test with NCI-H522, in the test with RXF 393, in the test with SK-MEL-5 and with RPMI-8226 was > 100 µM (inactive) in each case. Further, the GI50 in the test with HOP-62 was > 100 µM (inactive).
As to `c1ccc2c3c(ccc2c1)-c1[nH]ncc1CCO3`, the GI50 with HOP-18 is 61.4 µM (inactive); in the test with HCT-116 it was 32.4 µM (inactive); in the test with A549 it was 37 µM (inactive); in the test on EKVX it was 13.6 µM (inactive); with UACC-257 it was 27.7 µM (inactive); in the test with SK-OV-3 it was 35.8 µM (inactive). The GI50 in the test with HCC 2998 was 35.6 µM (inactive); in the test with LOX IMVI, 33.1 µM (inactive); in the test with CCRF-CEM, 32 µM (inactive); in the test on UO-31, 25.6 µM (inactive); with HOP-92, 27.5 µM (inactive); with SK-MEL-2 it was 36.1 µM (inactive). Also, the GI50 is 21.8 µM (inactive) with NCI-H522, 33.3 µM (inactive) in the test on RXF 393, > 46.9 µM (inactive) in the test with SK-MEL-5 and 30.6 µM (inactive) in the test on HOP-62.
As for `CCCN(CCC)c1cc2c(cc1F)c(=O)c(C(=O)O)cn2-c1ccc(N2CCN(C)CC2)cn1`, the GI50 in the test with HCT-116 is 15.3 µM (inactive); in the test on A549, 16.1 µM (inactive); in the test with EKVX, 16.7 µM (inactive); in the test with UACC-257 it was 20.2 µM (inactive); with M14, 16.9 µM (inactive); with SK-OV-3, 14.3 µM (inactive). Further, the GI50 in the test on SR is 15.7 µM (inactive); with LOX IMVI, 3 µM (inactive); in the test with CCRF-CEM, 17.6 µM (inactive); in the test on UO-31 it was 13.3 µM (inactive); in the test with HOP-92, 13 µM (inactive); in the test on NCI-H522, 11.5 µM (inactive). Further, the results for the GI50 with RXF 393, in the test with RPMI-8226 and in the test on HOP-62 were 18.7 µM (inactive), 17.7 µM (inactive) and 16.7 µM (inactive), respectively.
As to `CSc1nc2c(c(N3CCOCC3)n1)C(O)n1c(nc3ccccc31)S2` (configuration not stated), the GI50 in the test with HCT-116 was > 100 µM (inactive); in the test with A549 it was 29.6 µM (inactive); in the test on ACHN it was 36.6 µM (inactive); in the test with EKVX, > 100 µM (inactive); in the test on UACC-257 it was > 100 µM (inactive); with M14, > 100 µM (inactive). Besides, the GI50 was 96.2 µM (inactive) in the test with SK-OV-3; 51.2 µM (inactive) in the test on SR; > 100 µM (inactive) with HCC 2998; > 100 µM (inactive) with LOX IMVI; 21.1 µM (inactive) with CCRF-CEM; 3.93 µM (inactive) in the test on UO-31. Further, the GI50 was 72.3 µM (inactive) in the test on HOP-92; 29.7 µM (inactive) in the test with SK-MEL-2; 24.8 µM (inactive) with NCI-H522; 80.4 µM (inactive) with RXF 393; 3.23 µM (inactive) with SK-MEL-5; 4.72 µM (inactive) in the test on RPMI-8226. The GI50 with HOP-62 is 40.6 µM (inactive).
As to `CC1C2CC(CC2O)C1(C)C` (configuration not stated), the GI50 with HCT-116, in the test on A549, in the test on ACHN, in the test with UACC-257, with M14 and with SK-OV-3 was > 100 µM (inactive) throughout. Besides, the GI50 in the test on SR, with CCRF-CEM, in the test on UO-31, with HOP-92, with NCI-H522 and in the test with RXF 393 was > 100 µM (inactive) each time. Besides, the GI50 in the test on SK-MEL-5 and with HOP-62 was > 100 µM (inactive) each time.
Turning to `CN1CCC(C(O)(c2ccccc2)c2ccc(Br)cc2)CC1` (configuration not stated), the GI50 in the test with HCT-116 was 18.8 µM (inactive); in the test on A549, 26.4 µM (inactive); in the test on ACHN, 31.2 µM (inactive); in the test on EKVX, 28.8 µM (inactive); with UACC-257, 15.4 µM (inactive); with M14, 15.3 µM (inactive). Moreover, the GI50 in the test on SK-OV-3 is 32.7 µM (inactive); in the test on SR it was 17.5 µM (inactive); in the test on HCC 2998, 12.6 µM (inactive); with LOX IMVI it was 15.8 µM (inactive); in the test on CCRF-CEM it was 30.5 µM (inactive); in the test on UO-31, 12.5 µM (inactive). The GI50 in the test on HOP-92 is 8.45 µM (inactive); in the test with SK-MEL-2, 16.2 µM (inactive); in the test with NCI-H522 it was 15.5 µM (inactive); with RXF 393 it was 18.3 µM (inactive); with SK-MEL-5, 14.8 µM (inactive); in the test with RPMI-8226, 17.3 µM (inactive). Further, the GI50 with HOP-62 is 24.8 µM (inactive).
Turning to `CCOC(=O)C(Cc1ccc(N=NN(C)C)cc1)NC(=O)CC1c2ccccc2-c2ccccc21` (configuration not stated), the GI50 was > 100 µM (inactive) in the test with HCT-116; 81.7 µM (inactive) in the test on A549; 35.6 µM (inactive) with ACHN; > 100 µM (inactive) with EKVX; > 100 µM (inactive) in the test with UACC-257; > 100 µM (inactive) with M14. Also, the GI50 in the test with SK-OV-3 is > 100 µM (inactive); in the test on SR, 48.9 µM (inactive); with HCC 2998, > 100 µM (inactive); in the test with LOX IMVI, 85.3 µM (inactive); in the test on CCRF-CEM, 62.8 µM (inactive); in the test on UO-31 it was > 100 µM (inactive). Also, the GI50 is > 100 µM (inactive) with SK-MEL-2; 56.2 µM (inactive) in the test on NCI-H522; 57 µM (inactive) in the test with SK-MEL-5; 41.6 µM (inactive) in the test on RPMI-8226; > 100 µM (inactive) with HOP-62.
As to `COc1cc(O)c2c(=O)cc(C3(O)C=CC(=O)C=C3)oc2c1`, the GI50 in the test with HCT-116 was 0.29 µM (active); in the test on ACHN, < 0.045 µM (active); with EKVX it was 1.36 µM (inactive); in the test on UACC-257, 0.489 µM (active); in the test with M14, 0.542 µM (active); in the test with SK-OV-3 it was 2.37 µM (inactive). Moreover, the GI50 in the test on SR was < 0.01 µM (active); in the test on HCC 2998, 0.535 µM (active); in the test on LOX IMVI, 0.041 µM (active); with CCRF-CEM, < 0.01 µM (active); in the test with UO-31, 0.0733 µM (active); with SK-MEL-2, 0.619 µM (active). Moreover, the GI50 in the test with NCI-H522 was < 0.0361 µM (active); with RXF 393 it was 3.44 µM (inactive); in the test on SK-MEL-5 it was 0.0321 µM (active); in the test with HOP-62, 0.182 µM (active).
As for `NC(C/C=C/P(=O)(O)O)C(=O)O` (configuration not stated), the GI50 in the test on HCT-116, in the test on A549, in the test on ACHN, in the test with EKVX, in the test on UACC-257 and with M14 was > 100 µM (inactive) throughout. In addition, the GI50 in the test on SK-OV-3, in the test with SR, in the test with HCC 2998, in the test on LOX IMVI, in the test with CCRF-CEM and in the test with UO-31 was > 100 µM (inactive) each time. The GI50 in the test on HOP-92, in the test on SK-MEL-2, in the test with NCI-H522, in the test on RXF 393 and in the test with SK-MEL-5 was > 100 µM (inactive) in each case.
As for `COc1ccc(-c2cc(O)c3ccc(C)nc3n2)cc1`, the GI50 in the test with A549, with ACHN, in the test with EKVX, in the test on UACC-257, in the test with M14 and in the test on SK-OV-3 was > 100 µM (inactive) in each case. In addition, the GI50 in the test with HCC 2998 is > 100 µM (inactive); in the test with LOX IMVI, > 100 µM (inactive); with CCRF-CEM, > 100 µM (inactive); in the test on UO-31, > 100 µM (inactive); in the test with HOP-92, 97.7 µM (inactive); in the test with SK-MEL-2 it was > 100 µM (inactive). Besides, the GI50 with NCI-H522 was > 100 µM (inactive); in the test on RXF 393, > 100 µM (inactive); in the test on RPMI-8226 it was 55.7 µM (inactive); with HOP-62, > 100 µM (inactive).
As for `Nc1nc(O)c2ncn(C3C=CC(CO)O3)c2n1` (configuration not stated), the GI50 with HCT-116 is > 100 µM (inactive); in the test on UACC-257, > 100 µM (inactive); in the test on M14, > 100 µM (inactive); in the test on SR, > 100 µM (inactive); in the test with LOX IMVI, > 100 µM (inactive); in the test with CCRF-CEM it was 11.1 µM (inactive). The GI50 in the test with UO-31, in the test with HOP-92, in the test with SK-MEL-2, with RXF 393, in the test with SK-MEL-5 and with RPMI-8226 was > 100 µM (inactive) each time. In the test on HOP-62, the GI50 is > 100 µM (inactive).
Consider `CC(C)(C)OC(=O)NC(Cc1ccccc1)C(=O)N1CCCC1C(N)=O` (stereo not drawn) (Boc-Phe-Pro-NH2; configuration not given here), for which the GI50 with HCT-116, in the test with A549, in the test on ACHN, in the test on EKVX, with UACC-257 and in the test on M14 was > 100 µM (inactive) each time. Further, the GI50 with SK-OV-3 was > 100 µM (inactive); in the test with SR, > 100 µM (inactive); with HCC 2998 it was > 100 µM (inactive); in the test with LOX IMVI, > 100 µM (inactive); with CCRF-CEM, > 100 µM (inactive); in the test with HOP-92, 1.74 µM (inactive). The GI50 with NCI-H522, with SK-MEL-5, with RPMI-8226 and with HOP-62 was > 100 µM (inactive) each time.

What is called GI50 is the concentration that inhibits growth by half.
